Results on 1 compound are retold here after BindingDB's records for doi:10.1016/j.ejmech.2019.01.017 (Qilu University of Technology (Shandong Academy of Sciences), 2019).

The target of the assay is RAC-beta serine/threonine-protein kinase (Homo sapiens, UniProt P31751). The assay is described as follows: Inhibition of PKBbeta (unknown origin).
RAC-beta serine/threonine-protein kinase, sequence (P31751 whole entry): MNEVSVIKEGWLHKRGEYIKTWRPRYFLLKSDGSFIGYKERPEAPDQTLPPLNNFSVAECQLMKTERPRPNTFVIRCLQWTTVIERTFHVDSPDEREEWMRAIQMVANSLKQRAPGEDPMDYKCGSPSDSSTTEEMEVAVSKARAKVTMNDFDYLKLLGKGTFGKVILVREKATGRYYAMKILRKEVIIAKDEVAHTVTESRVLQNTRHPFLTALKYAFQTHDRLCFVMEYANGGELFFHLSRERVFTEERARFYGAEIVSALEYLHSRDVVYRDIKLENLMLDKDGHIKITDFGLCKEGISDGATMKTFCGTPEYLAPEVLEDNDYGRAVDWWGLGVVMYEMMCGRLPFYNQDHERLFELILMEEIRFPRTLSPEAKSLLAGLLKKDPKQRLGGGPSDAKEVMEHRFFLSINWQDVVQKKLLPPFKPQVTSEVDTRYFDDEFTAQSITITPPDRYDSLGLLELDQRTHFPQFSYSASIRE

For the compound `Cc1ccc2[nH]c(=O)c(C(=O)/C=C/c3nc4ccccc4[nH]3)c(-c3ccccc3)c2c1`, half-maximal inhibition (IC50) required 1640 nM.
